From patent publication US20250064890A1, “PROTEIN COMPOSITIONS FOR THE TREATMENT OF INFLAMMATORY DISEASES” (Unichem Laboratories Limited, priority 2021, published 2025)
Like-named read-outs stand apart in the source and are kept apart here.

Columns and labels:
Format in all cases: cell-based, human
[1] = tested on: oral (buccal) mucosa cells (TR146); assay: Annexin positive cell population against radiation damage; conditions: for % Apoptotic cells: Annexin positive
Procedure: Oral buccal mucosal cells (TR146) were incubated overnight in 5% CO2 incubator at 37° C. for 24 h. […] After 24 h of treatment, cells were exposed to damage (5-FU 5 mM) for 1.25 h for chemotherapy induced inflammation and exposed to gamma radiation (3.5 kGy) using Cobalt 60 for radiation induced inflammation. After the exposure, the anti-apoptotic effect of SEQ ID NO 2 was determined by restoration of mitochondrial membrane depolarization by JC-1 staining and reduction in apoptotic cell populations (Annexin positive and subG0/G1 cells in cell cycle analysis).
To determine the reduction in apoptotic cell populations using annexin-v staining cells were gently harvested into pre-labeled sterile centrifuge tubes and centrifuged at 300×g for 5-7 min. Supernatant were discarded and the pellet was resuspended in 200 μl of fresh culture medium. 100 μl of cell suspension was transferred into pre-labeled sterile centrifuge tubes. 100 μl of Annexin-V reagent was added to each tube and incubated for 30 min at RT in dark. Cells stained for Annexin-V were then transferred into 96-well plates and acquired on flow cytometer (Guava technologies). Percentage of Annexin-V positive cells was calculated as follows:
={[% Annexin positive cells in 5-FU or radiation alone]−[% Annexin positive cells in (TI+5-FU) or (TI+radiation)]/% Annexin positive cells in 5-FU or radiation alone}*100

NF-kB = assay: Multiplex analysis, radiotherapy, TR146 cell lysates
Procedure: (§1) Oral buccal mucosal cells (TR146) cells were incubated overnight at 37° C. in 5% CO2 incubator. […] The cells were then stimulated with 5-FU (10 mM) for another 24h for chemotherapy and with gamma radiation (3.5 kGy) using Cobalt 60 for radiotherapy. After 24 h, cell culture supernatants were collected from each well and stored at −20° C. till multiplex analysis. For NF-kB estimations, cell lysates were prepared. Levels of biomarkers were estimated using Magpix® multiplex machine. The cells treated with Amifostine (along with 5-FU or radiation) were considered as positive control (PC). Untreated cells (5-FU or radiation alone treated) were used as negative control (NC).
(§2) The percent modulation in each sample was determined as follows:
(§3) [{Concentration of biomarkers (pg/ml) in Control cells (5-FU or radiation alone treated)−Concentration of biomarkers (pg/ml) in SEQ ID NO: 2+5-FU or radiation treated cells)}/Concentration of biomarkers (pg/ml) in Control cells (5-FU or radiation alone treated)]*100

[2] = tested on: oral (buccal) mucosa cells (TR146)
Procedure: The protective effect of the recombinant lectin on survival of TR146 cells against 5-FU induced damage was determined using following calculations:
The viability of cells was determined as: % Cell viability=(100−% Cytotoxicity); • where, the percentage cytotoxicity corresponding to each treatment was calculated as: % Cytotoxicity=[(R−X)/R]*100, wherein X=Absorbance of cells treated with 5-FU or radiation damage/TI+5-FU, R=Absorbance of Control cells (Untreated) and Percentage protection was calculated as:
{(Absorbance of TI+5-FU or radiation)−(Absorbance of 5-FU or radiation alone)/(Absorbance of Untreated)−(Absorbance of 5-FU alone)}*100

IL-6 [3] = assay: Multiplex analysis, radiotherapy, TR146
Procedure: as §1, §2, §3

VEGF [4] = assay: Multiplex analysis, radiotherapy, TR146
Procedure: as §1, §2, §3

IL-1β [5] = assay: Multiplex analysis, radiotherapy, TR146
Procedure: as §1, §2, §3

MMP-8 = assay: Multiplex analysis, radiotherapy, TR146
Procedure: as §1, §2, §3

MMP-3 [6] = assay: Multiplex analysis, radiotherapy, TR146
Procedure: as §1, §2, §3

RAGE = assay: Multiplex analysis, radiotherapy, TR146
Procedure: as §1, §2, §3

CCL-2 = assay: Multiplex analysis, radiotherapy, TR146
Procedure: as §1, §2, §3

TNF-α [7] = assay: Multiplex analysis, radiotherapy, TR146
Procedure: as §1, §2, §3

IL-6 [8] = assay: Multiplex analysis, chemotherapy (5-FU), TR146
Procedure: as §1, §2, §3

IL-12/IL-23p40 = assay: Multiplex analysis, chemotherapy (5-FU), TR146
Procedure: as §1, §2, §3

VEGF [9] = assay: Multiplex analysis, chemotherapy (5-FU), TR146
Procedure: as §1, §2, §3

IL-1β [10] = assay: Multiplex analysis, chemotherapy (5-FU), TR146
Procedure: as §1, §2, §3

MMP-3 [11] = assay: Multiplex analysis, chemotherapy (5-FU), TR146
Procedure: as §1, §2, §3

TNF-α [12] = assay: Multiplex analysis, chemotherapy (5-FU), TR146
Procedure: as §1, §2, §3

[13] = 0.1 μg/ml + Radiation (3.5 kGy)

NCCCNCCSP(=O)(O)O [Amifostine, reference compound]
% Decrease in Apoptotic cells (with respect to radiation control) [1, 13]: 47.3%
% Apoptotic cells [1, 13]: 7.2%
% Decrease in Apoptotic cells (with respect to radiation control) ([1]; 1 μg/ml + Radiation (3.5 kGy)): 32.6%
% Apoptotic cells ([1]; 1 μg/ml + Radiation (3.5 kGy)): 9.2%
% Decrease in Apoptotic cells (with respect to radiation control) ([1]; 10 μg/ml + Radiation (3.5 kGy)): 63%
% Apoptotic cells ([1]; 10 μg/ml + Radiation (3.5 kGy)): 5.1%
Percentage Inhibition NF-kB (NF-kB; [13]): 15.8%
Percentage Inhibition NF-kB (NF-kB; 10 μg/ml + Radiation (3.5 kGy)): 17.7%
% Protection ([2]; 1 μg/ml + Radiation (3.5 kGy)): 7.7%
% Protection ([2]; 5 μg/ml + Radiation (3.5 kGy)): 22.2%
% Protection ([2]; 10 μg/ml + Radiation (3.5 kGy)): 43.1%
% Protection ([2]; 25 μg/ml + Radiation (3.5 kGy)): 12%
Percentage Inhibition IL-6 (IL-6 [3]; [13]): 14.2%
Percentage Inhibition IL-6 (IL-6 [3]; 10 μg/ml + Radiation (3.5 kGy)): 1.3%
Percentage Inhibition VGEF (VEGF [4]; [13]): 10.3%
Percentage Inhibition VGEF (VEGF [4]; 10 μg/ml + Radiation (3.5 kGy)): 7.2%
Percentage Inhibition IL-1β (IL-1β [5]; [13]): 10.7%
Percentage Inhibition IL-1β (IL-1β [5]; 10 μg/ml + Radiation (3.5 kGy)): 12.1%
Percentage Inhibition MMP-8 (MMP-8; [13]): 3.6%
Percentage Inhibition MMP-8 (MMP-8; 10 μg/ml + Radiation (3.5 kGy)): 13%
Percentage Inhibition MMP-3 (MMP-3 [6]; [13]): 51.9%
Percentage Inhibition MMP-3 (MMP-3 [6]; 10 μg/ml + Radiation (3.5 kGy)): 47.4%
Percentage Inhibition RAGE (RAGE; [13]): 45.1%
Percentage Inhibition RAGE (RAGE; 10 μg/ml + Radiation (3.5 kGy)): 40.3%
Percentage Inhibition CCL-2 (CCL-2; [13]): 23.1%
Percentage Inhibition CCL-2 (CCL-2; 10 μg/ml + Radiation (3.5 kGy)): 0.1%
Percentage Inhibition TNF-α (TNF-α [7]; [13]): 49.3%
Percentage Inhibition TNF-α (TNF-α [7]; 10 μg/ml + Radiation (3.5 kGy)): 44.3%
Percentage Inhibition IL-6 (IL-6 [8]; 1 μg/ml + 5-FU (10 mM)): 7.2%
Percentage Inhibition IL-6 (IL-6 [8]; 10 μg/ml + 5-FU (10 mM)): 8.9%
Percentage Inhibition IL-6 (IL-6 [8]; 50 μg/ml + 5-FU (10 mM)): 35.2%
Percentage Inhibition IL-12/IL-23p40 (IL-12/IL-23p40; 1 μg/ml + 5-FU (10 mM)): 0%
Percentage Inhibition IL-12/IL-23p40 (IL-12/IL-23p40; 10 μg/ml + 5-FU (10 mM)): −2.1%
Percentage Inhibition IL-12/IL-23p40 (IL-12/IL-23p40; 50 μg/ml + 5-FU (10 mM)): 13.4%
Percentage Inhibition VGEF (VEGF [9]; 1 μg/ml + 5-FU (10 mM)): 27.9%
Percentage Inhibition VGEF (VEGF [9]; 10 μg/ml + 5-FU (10 mM)): 35.4%
Percentage Inhibition VGEF (VEGF [9]; 50 μg/ml + 5-FU (10 mM)): 39.6%
Percentage Inhibition IL-1β (IL-1β [10]; 1 μg/ml + 5-FU (10 mM)): 14.2%
Percentage Inhibition IL-1β (IL-1β [10]; 10 μg/ml + 5-FU (10 mM)): 19.5%
Percentage Inhibition IL-1β (IL-1β [10]; 50 μg/ml + 5-FU (10 mM)): 46.6%
Percentage Inhibition MMP-3 (MMP-3 [11]; 1 μg/ml + 5-FU (10 mM)): 22.6%
Percentage Inhibition MMP-3 (MMP-3 [11]; 10 μg/ml + 5-FU (10 mM)): 23.4%
Percentage Inhibition MMP-3 (MMP-3 [11]; 50 μg/ml + 5-FU (10 mM)): 26.8%
Percentage Inhibition TNF-α (TNF-α [12]; 1 μg/ml + 5-FU (10 mM)): 10%
Percentage Inhibition TNF-α (TNF-α [12]; 10 μg/ml + 5-FU (10 mM)): 13.3%
Percentage Inhibition TNF-α (TNF-α [12]; 50 μg/ml + 5-FU (10 mM)): 10%
